28 molecules from US4977173A, “Aminomethyl oxooxazolidinyl ethenylbenzene derivatives useful as antibacterial agents” (E. I. Du Pont de Nemours and Company, priority 1989, dated 1990) can be followed below.

Broadly, the ED50 is the dose at which the effect has come halfway, by size or by number of responders.

Values after ≈ are worked out from the molar mass of the structure shown. Read-outs that look alike come from different tables or passages of the source.

In one test the test system is Escherichia coli. Description: In vitro broth microdilution minimal inhibitory concentration (24-hour MIC), Escherichia coli. The conditions noted are these: Mueller-Hinton broth, standard microdilution; for MIC: read-out: Minimum Inhibitory Concentration. Type of test: cell-based. From the text: (§1) As shown in Table VII compounds of formula I exert an in vitro antibacterial effect.
In general terms: Dilution methods test growth across graded concentrations, often in twofold steps.

For test [1], the system named is Staphylococcus aureus. Description: In vitro broth microdilution minimal inhibitory concentration (24-hour MIC), Staphylococcus aureus. Type of test: cell-based. The conditions noted are these: Mueller-Hinton broth, standard microdilution; for MIC: read-out: Minimum Inhibitory Concentration.
Text: as §1

Test [2] relates to Staphylococcus aureus. Kind of test: In vivo activity against Staphylococcus aureus in an acute lethal mouse model. Particulars: mice infected intraperitoneally, dosed one and four hours post-infection, survival on seventh day. As for the experimental part:
Determinations of in vivo efficacy are performed by inoculating mice intraperitoneally with cultures of the infecting organism diluted to produce 100% mortality in control animals within twenty-four hours. The culture of S. aureus used to infect the animals was diluted to the required bacterial density using 5% aqueous hog gastric mucin. The compounds are dissolved or suspended in 0.25% aqueous Methocel® (Methocel®: Hydroxypropyl Methylcellulose, E15 Premium, Dow Chemical Company) for oral administration or sterile distilled water containing 5% dimethylsulfoxide (Fisher Scientific Company, Fairlawn, N.J.) for subcutaneous administration. The mice are dosed at one hour and at four hours post-infection. Mortality is recorded daily until test termination seven days post infection. The number of survivors in each treatment group on the seventh day after infection is used in the calculation of the ED50, the dose of compound that protects 50% of the mice (Litchfield, J. T. and Wildoxon. A simplified method for evaluating dose-effect experiments. J. Pharmacol Exp. Ther., 96:99-113, 1949).

[3] abbreviates: Staphylococcus aureus, 168 h, Oral Administration, read-out: ED50.
The mark [4] stands for this setting: Staphylococcus aureus, sc, 168 h, Subcutaneous Administration, read-out: ED50.
[5] abbreviates: Subcutaneous Administration, 10080 min.

In the case of `CC(=O)NCC1CN(c2ccc(/C(=C/C#N)c3ccccc3)cc2)C(=O)O1` (racemic) [Example 5], the MIC with Escherichia coli is greater than 128 µg/mL; in the test on Staphylococcus aureus [1], 32 µg/mL (≈ 88.5 µM). For the same molecule, the ED50 in the test with Staphylococcus aureus [2] (setting [3]) and in the test with Staphylococcus aureus [2] (setting [4]) was greater than 90 mg/kg each time.
Turning to `CC(=O)NC[C@H]1CN(c2ccc(/C(C)=C/C#N)cc2)C(=O)O1` [Example 1, (l)-N-[3-[4-(E-1-Methyl-2-cyanoethenyl)phenyl]-2-oxooxazolidin-5-ylmethyl]acetamide], the MIC is greater than 128 µg/mL in the test on Escherichia coli and 1 µg/mL (≈ 3.34 µM) in the test with Staphylococcus aureus [1]. Besides, the 50% effective dose (ED50) was 1.3 mg/kg in the test on Staphylococcus aureus [2] (setting [3]) and 0.8 mg/kg with Staphylococcus aureus [2] (setting [4]).
As for `CC(=O)NC[C@H]1CN(c2ccc(/C=C/C#N)cc2)C(=O)O1` [Example 2, (l)-N-[3-[4-(E-2-Cyanoethenyl)phenyl]-2-oxooxazolidin-5-ylmethyl]acetamide], the MIC in the test with Escherichia coli is greater than 128 µg/mL; in the test on Staphylococcus aureus [1], 4 µg/mL (≈ 14 µM). In addition, the ED50 in the test with Staphylococcus aureus [2] (setting [3]) stood at 3.5 mg/kg; in the test with Staphylococcus aureus [2] (setting [4]) it was 2.8 mg/kg.
The like results for `CC(=O)NC[C@H]1CN(c2ccc(/C(C)=C/C#N)c(C)c2)C(=O)O1` [Example 3] were, in that order, greater than 128 µg/mL, 2 µg/mL (≈ 6.38 µM), 6.4 mg/kg and 5.1 mg/kg.
`CC(=O)NC[C@H]1CN(c2ccc(/C(=C/C#N)c3ccc(F)cc3)cc2)C(=O)O1` [Example 6]: the MIC with Escherichia coli and in the test on Staphylococcus aureus [1] was greater than 128 µg/mL in each case.
For the molecule `CC/C(=C\C#N)c1ccc(N2C[C@H](CNC(C)=O)OC2=O)cc1` [Example 7], the MIC with Escherichia coli is greater than 128 µg/mL; in the test with Staphylococcus aureus [1], 1 µg/mL (≈ 3.19 µM). For the same molecule, the ED50 turned out to be 3.1 mg/kg in the test with Staphylococcus aureus [2] (setting [3]) and 2.1 mg/kg in the test with Staphylococcus aureus [2] (setting [4]).
Regarding `CCC/C(=C\C#N)c1ccc(N2C[C@H](CNC(C)=O)OC2=O)cc1` [Example 8], the MIC in the test on Escherichia coli was greater than 128 µg/mL; in the test on Staphylococcus aureus [1] it was 2 µg/mL (≈ 6.11 µM). Besides, the ED50 with Staphylococcus aureus [2] (setting [3]) and in the test with Staphylococcus aureus [2] (setting [4]) was greater than 90 mg/kg in each case.
Consider `CC(=O)NC[C@H]1CN(c2ccc(/C(C)=C(\C)C#N)cc2)C(=O)O1` [Example 9], for which the MIC with Escherichia coli was greater than 128 µg/mL; in the test with Staphylococcus aureus [1] it was 2 µg/mL (≈ 6.38 µM). Besides, the values for the ED50 with Staphylococcus aureus [2] (setting [3]) and in the test with Staphylococcus aureus [2] (setting [4]) were 3.8 mg/kg and 2.5 mg/kg, respectively.
Turning to `CC(=O)NC[C@H]1CN(c2ccc(/C(C)=C(/C)C#N)cc2)C(=O)O1` [Example 11], the MIC with Escherichia coli was greater than 128 µg/mL; in the test with Staphylococcus aureus [1], 8 µg/mL (≈ 25.5 µM).
Consider `CC(=O)NC[C@H]1CN(c2ccc(/C=C(\C)C#N)cc2)C(=O)O1` [Example 12], for which the values for the MIC in the test on Escherichia coli and in the test with Staphylococcus aureus [1] were greater than 128 µg/mL and 1 µg/mL (≈ 3.34 µM), respectively. Besides, the ED50 with Staphylococcus aureus [2] (setting [3]) came to 2.9 mg/kg; in the test with Staphylococcus aureus [2] (setting [4]) it was 1.9 mg/kg.
For `CC(=O)NC[C@H]1CN(c2ccc(/C(C)=C\C#N)cc2)C(=O)O1` [Example 13], the results for the MIC with Escherichia coli and with Staphylococcus aureus [1] were greater than 128 µg/mL and 8 µg/mL (≈ 26.7 µM), respectively.
For the molecule `CC(=O)NC[C@H]1CN(c2ccc(/C=C/[N+](=O)[O-])cc2)C(=O)O1` [Example 19, (l)-N-[3-[4-(E-Nitroethenyl)phenyl]-2-oxooxazolidin-5-ylmethyl]acetamide], the MIC was greater than 128 µg/mL in the test with Escherichia coli and 8 µg/mL (≈ 26.2 µM) with Staphylococcus aureus [1]. Moreover, the ED50 in the test on Staphylococcus aureus [2] (setting [3]) and with Staphylococcus aureus [2] (setting [4]) was greater than 90 mg/kg each time.
Consider `CC(=O)NC[C@H]1CN(c2ccc(/C=C(\C)[N+](=O)[O-])cc2)C(=O)O1` [Example 20, (l)-N-[3-[4-(E-2-Nitro-2-methylethenyl)phenyl]-2-oxooxazolidin-5-ylmethyl]acetamide], for which the MIC with Escherichia coli was greater than 128 µg/mL; in the test on Staphylococcus aureus [1] it was 0.1 µg/mL (≈ 0.313 µM). The ED50 turned out to be 14.1 mg/kg in the test with Staphylococcus aureus [2] (setting [3]) and 9.1 mg/kg in the test with Staphylococcus aureus [2] (setting [4]).
As for `CSC(C#N)=Cc1ccc(N2CC(CNC(C)=O)OC2=O)cc1` (centres unmarked) [Example 21, (l)-N-[3-(4-(2-Cyano-2-methylsulfenylethenyl)phenyl]-2-oxooxazolidin-5-ylmethyl]acetamide], the “Minimum Inhibitory Concentration” value in the test on Escherichia coli was greater than 128 µg/mL; in the test with Staphylococcus aureus [1], 4 µg/mL. In addition, the ED50 in the test on Staphylococcus aureus [2] (Oral Administration, 10080 min) is reported as greater than 90 mg/kg; with Staphylococcus aureus [2] (setting [5]), 11.8 mg/kg.
As for `CCOC(=O)/C=C/c1ccc(N2C[C@H](CNC(C)=O)OC2=O)cc1` [Example 22, (l)-N-[3-[4-(E-2-Carboethoxyethenyl)-phenyl]-2-oxooxazolidin-5-ylmethyl]acetamide], the MIC was greater than 128 µg/mL with Escherichia coli and 8 µg/mL (≈ 24.1 µM) with Staphylococcus aureus [1]. The ED50 with Staphylococcus aureus [2] (setting [3]) and in the test with Staphylococcus aureus [2] (setting [4]) was greater than 90 mg/kg in each case.
Take `CC(=O)NC[C@H]1CN(c2ccc(/C(C)=C/C(N)=O)cc2)C(=O)O1` [Example 23, (l)-N-[3-[4-(E-1-Methyl-2-carbamidoethenyl)phenyl]-2-oxooxazolidin-5-ylmethyl]acetamide]: the MIC in the test with Escherichia coli is greater than 128 µg/mL; with Staphylococcus aureus [1] it was 4 µg/mL (≈ 12.6 µM). The ED50 was determined as 26.4 mg/kg in the test on Staphylococcus aureus [2] (setting [3]) and 36.2 mg/kg in the test on Staphylococcus aureus [2] (setting [4]).
Turning to `CSC=Cc1ccc(N2CC(CNC(C)=O)OC2=O)cc1` (centres unmarked) [Example 24, (l)-N-[3-[4-(2-Methylsulfenylethenyl)-phenyl]-2-oxooxazolidin-5-ylmethyl]acetamide], the “Minimum Inhibitory Concentration” value in the test on Escherichia coli is greater than 128 µg/mL; with Staphylococcus aureus [1], 8 µg/mL. For the same molecule, the ED50 came out at 33.3 mg/kg in the test on Staphylococcus aureus [2] (Oral Administration, 10080 min) and 14.6 mg/kg with Staphylococcus aureus [2] (setting [5]).
`CC(=O)NC[C@H]1CN(c2ccc(/C=C/C=O)cc2)C(=O)O1` [Example 25, (l)-N-[3-[4-(E-2-Formylethenyl)phenyl]-2-oxooxazolidin-5-ylmethyl]acetamide]: the MIC was greater than 128 µg/mL with Escherichia coli and 0.5 µg/mL (≈ 1.73 µM) with Staphylococcus aureus [1]. The ED50 with Staphylococcus aureus [2] (setting [3]) and with Staphylococcus aureus [2] (setting [4]) was greater than 80 mg/kg each time.
`CC(=O)NC[C@H]1CN(c2ccc(C=C(C#N)C#N)cc2)C(=O)O1` [Example 26]: the MIC was greater than 128 µg/mL with Escherichia coli and 16 µg/mL (≈ 51.6 µM) in the test on Staphylococcus aureus [1]. In addition, the ED50 in the test with Staphylococcus aureus [2] (setting [3]) and in the test on Staphylococcus aureus [2] (setting [4]) was greater than 90 mg/kg in each case.
In the case of `CC(=O)NC[C@H]1CN(c2ccc(C=C(C(C)=O)C(C)=O)cc2)C(=O)O1` [Example 28], the MIC in the test on Escherichia coli is greater than 128 µg/mL; in the test on Staphylococcus aureus [1], 16 µg/mL (≈ 46.5 µM). Also, the 50% effective dose (ED50) with Staphylococcus aureus [2] (setting [3]) and with Staphylococcus aureus [2] (setting [4]) was greater than 90 mg/kg in each case.
For `CC/C(=C\c1ccc(N2C[C@H](CNC(C)=O)OC2=O)cc1)[N+](=O)[O-]` [Example 29], the MIC is greater than 128 µg/mL in the test on Escherichia coli and 1 µg/mL (≈ 3 µM) in the test on Staphylococcus aureus [1]. Also, the ED50 with Staphylococcus aureus [2] (setting [3]) and in the test on Staphylococcus aureus [2] (setting [4]) was greater than 90 mg/kg each time.
Take `CCC/C(=C\c1ccc(N2C[C@H](CNC(C)=O)OC2=O)cc1)[N+](=O)[O-]` [Example 30]: the MIC in the test with Escherichia coli is greater than 128 µg/mL; in the test with Staphylococcus aureus [1], 4 µg/mL (≈ 11.5 µM). The ED50 in the test on Staphylococcus aureus [2] (setting [3]) and in the test on Staphylococcus aureus [2] (setting [4]) was greater than 90 mg/kg throughout.
As for `COC(=O)/C=C(\C)c1ccc(N2C[C@H](CNC(C)=O)OC2=O)cc1` [Example 58, (l)-N-[3-[4-(E-1-Methyl-2-carbomethoxyethenyl)phenyl]-2-oxooxazolidin-5-ylmethyl]acetamide], the MIC with Escherichia coli is greater than 128 µg/mL; in the test on Staphylococcus aureus [1] it was 2 µg/mL (≈ 6.02 µM). Besides, in the test on Staphylococcus aureus [2] (setting [4]), the ED50 was determined as 46.2 mg/kg.
Regarding `COC(=O)/C=C/c1ccc(N2C[C@H](CNC(C)=O)OC2=O)cc1` [Example 59], the MIC with Escherichia coli was greater than 128 µg/mL; with Staphylococcus aureus [1] it was 8 µg/mL (≈ 25.1 µM). Besides, in the test on Staphylococcus aureus [2] (setting [4]), the ED50 is greater than 90 mg/kg.
The like results for `CC(=O)/C=C/c1ccc(N2C[C@H](CNC(C)=O)OC2=O)cc1` [Example 60] were, in that order, greater than 128 µg/mL, 4 µg/mL (≈ 13.2 µM) and 51.9 mg/kg.
The like results for `CC(=O)NC[C@H]1CN(c2ccc(/C=C/C(=O)N(C)C)cc2)C(=O)O1` [Example 61] were, in that order, greater than 128 µg/mL, 32 µg/mL (≈ 96.6 µM) and 39.5 mg/kg.
Regarding `CC(=O)NC[C@H]1CN(c2ccc(/C=C/C(N)=O)cc2)C(=O)O1` [Example 62], the MIC with Escherichia coli was greater than 128 µg/mL; in the test with Staphylococcus aureus [1], 32 µg/mL (≈ 105 µM). The 50% effective dose (ED50) in the test on Staphylococcus aureus [2] (setting [4]) came to 20.4 mg/kg.
As for `CC(=O)NC[C@H]1CN(c2ccc(C3=CC(=O)CCC3)cc2)C(=O)O1` [Example 68], the MIC was greater than 128 µg/mL with Escherichia coli and 0.5 µg/mL (≈ 1.52 µM) with Staphylococcus aureus [1]. In addition, the ED50 with Staphylococcus aureus [2] (setting [3]) came to 2.4 mg/kg; in the test with Staphylococcus aureus [2] (setting [4]), 1.7 mg/kg.
